We go through 24 compounds from US20110044938A1 (NYCOMED GMBH, priority 2006, published 2011).

Test [1] deals with subclones of RKO colon adenocarcinoma cells (RKOp27 or RKOp21) arrested by Ponasterone A. Description: Alamar Blue cell viability assay, cell cycle specific mode of action: cells arrested by ectopic p27Kip1 induced by Ponasterone A versus proliferating cells. It counts as cell-based. The conditions noted are these: Homo sapiens, RKO p27 induced (arrested) cells, 10 μM Ponasterone A, 72 hours, value = class bound given in Table A, read-out: −logIC50 RKO p27 induced (arrested) (converted). The method, boiled down:
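RKOp27 or RKOp21 cells, 15000/well in DMEM/10% FCS, either arrested by p27Kip1 induced with 10 μM Ponasterone A or proliferating without inducer; compound added after 24 h, 72 h at 37° C. Alamar Blue fluorescence (544/590 nm), viability as % of untreated cells; −log IC50 reported.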

Test [2] deals with RKO (RKOp27) human colon adenocarcinoma cells. Description: Alamar Blue cell viability assay, anti-proliferative/cytotoxic activity on proliferating RKO subclones. Format: cell-based. The following applies: RKOp27, 72 h, RKO p27 uninduced (proliferating) cells, value = class bound given in Table A, read-out: −logIC50 RKO p27 uninduced (proliferating) (converted). The method, boiled down: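 RKOp27 subclones (5000 cells/well) were exposed 24 h after seeding to semi-log compound dilutions in DMEM with 10% FCS, in quadruplicate, for 72 h at 37 °C. Viability was read by Alamar Blue fluorescence (544/590 nm) relative to untreated cells (1% DMSO medium). IC50 came from concentration-effect curves and is reported as −log IC50 [mol/l].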

A value given as a limit tells only on which side of the number the result lay.

Turning to `COc1cccc(CCC(=O)Nc2sc3c(c2C#N)CCC(COC(=O)N2CCCC2)C3)c1` (stereo not drawn) [Example 246, Pyrrolidine-1-carboxylic acid 3-cyano-2-[3-(3-methoxy-phenyl)-propanoylamino]-4,5,6,7-tetrahydro-benzo[b]thiophen-6-ylmethyl ester], the results for the IC50 in test [1] and in test [2] were at least 100000 nM and at most 501 nM, respectively.

Take `COc1cccc(CCC(=O)Nc2sc3c(c2C#N)CCC(COC(=O)NCc2csc(C)n2)C3)c1` (stereo not drawn) [Example 247, (2-Methyl-thiazol-4-ylmethyl)-carbamic acid 3-cyano-2-[3-(3-methoxy-phenyl)-propanoylamino]-4,5,6,7-tetrahydro-benzo[b]thiophen-6-ylmethyl ester]: the results for the IC50 in test [1] and in test [2] were at least 100000 nM and at most 501 nM, respectively.

For `CCNC(=O)OC1CCc2c(sc(NC(=O)CCc3cccc(OC)c3)c2C#N)C1` (stereo not drawn) [Example 248, Ethyl-carbamic acid 3-cyano-2-[3-(3-methoxy-phenyl)-propanoylamino]-4,5,6,7-tetrahydro-benzo[b]thiophen-6-yl ester], the figures for the IC50 in test [1] and in test [2] were at least 100000 nM and at most 501 nM, respectively.

As for `COc1cccc(CCC(=O)Nc2sc3c(c2C#N)CCC(OC(=O)NC2CC2)C3)c1` (stereo not drawn) [Example 249, Cyclopropyl-carbamic acid 3-cyano-2-[3-(3-methoxy-phenyl)-propanoylamino]-4,5,6,7-tetrahydro-benzo[b]thiophen-6-yl ester], the IC50 in test [1] was at least 100000 nM; in test [2] it was at most 501 nM.

As to `COc1cccc(CCC(=O)Nc2sc3c(c2C#N)CCC(OC(=O)NCCO)C3)c1` (stereo not drawn) [Example 250, (2-Hydroxy-ethyl)-carbamic acid 3-cyano-2-[3-(3-methoxy-phenyl)-propanoylamino]-4,5,6,7-tetrahydro-benzo[b]thiophen-6-yl ester], the IC50 is at least 100000 nM in test [1] and at most 501 nM in test [2].

Turning to `COc1cccc(CCC(=O)Nc2sc3c(c2C#N)CCC(OC(=O)NC2CCOCC2)C3)c1` (stereo not drawn) [Example 251, (Tetrahydro-pyran-4-yl)-carbamicacid 3-cyano-2-[3-(3-methoxy-phenyl)-propanoylamino]-4,5,6,7-tetrahydro-benzo[b]thiophen-6-yl ester], the IC50 in test [1] was at least 100000 nM; in test [2], 501 to 2000 nM.

`CCNC(=O)OCC1CCc2c(sc(NC(=O)CCc3cccc(OC)c3)c2C#N)C1` (stereo not drawn) [Example 252, Ethyl-carbamic acid 3-cyano-2-[3-(3-methoxy-phenyl)-propanoylamino]-4,5,6,7-tetrahydro-benzo[b]thiophen-6-ylmethyl ester]: the IC50 is at least 100000 nM in test [1] and at most 501 nM in test [2].

As for `COc1cccc(CCC(=O)Nc2sc3c(c2C#N)CCC(COC(=O)NC2CC2)C3)c1` (stereo not drawn) [Example 253, Cyclopropyl-carbamic acid 3-cyano-2-[3-(3-methoxy-phenyl)-propanoylamino]-4,5,6,7-tetrahydro-benzo[b]thiophen-6-ylmethyl ester], the IC50 in test [1] is at least 100000 nM; in test [2] it was at most 501 nM.

As for `CCOc1ccccc1CCC(=O)Nc1sc2c(c1C#N)CCC(OC(=O)NCc1csc(C)n1)C2` (stereo not drawn) [Example 254, (2-Methyl-thiazol-4-ylmethyl)-carbamic acid 3-cyano-2-[3-(2-ethoxy-phenyl)-propanoylamino]-4,5,6,7-tetrahydro-benzo[b]thiophen-6-yl ester], the IC50 in test [1] is at least 100000 nM; in test [2] it was at most 501 nM.

As for `COC(=O)OCC1CCc2c(sc(NC(=O)CCc3cccc(OC)c3)c2C#N)C1` (stereo not drawn) [Example 255, Carbonic acid 3-cyano-2-[3-(3-methoxy-phenyl)-propanoylamino]-4,5,6,7-tetrahydro-benzo[b]thiophen-6-ylmethyl ester methyl ester], the IC50 is at least 100000 nM in test [1] and 501 to 2000 nM in test [2].

Regarding `Cc1cc(CNC(=O)OCC2CCc3c(sc(NC(=O)CCc4cccnc4)c3C#N)C2)no1` (stereo not drawn) [Example 256, (5-Methyl-isoxazol-3-ylmethyl)-carbamic acid 3-cyano-2-(3-pyridin-3-yl-propanoylamino)-4,5,6,7-tetrahydro-benzo[b]thiophen-6-ylmethyl ester], the IC50 in test [1] was at least 100000 nM; in test [2], 501 to 2000 nM.

Take `Cc1cc(CNC(=O)OCC2CCc3c(sc(NC(=O)CCc4cccnc4)c3C#N)C2)on1` (stereo not drawn) [Example 257, (3-Methyl-isoxazol-5-ylmethyl)-carbamic acid 3-cyano-2-(3-pyridin-3-yl-propanoylamino)-4,5,6,7-tetrahydro-benzo[b]thiophen-6-ylmethyl ester]: the IC50 in test [1] was at least 100000 nM; in test [2] it was 501 to 2000 nM.

In the case of `N#Cc1c(NC(=O)CCc2cccnc2)sc2c1CCC(COC(=O)N1CCCC1)C2` (stereo not drawn) [Example 258, Pyrrolidine-1-carboxylic acid 3-cyano-2-(3-pyridin-3-yl-propanoylamino)-4,5,6,7-tetrahydro-benzo[b]thiophen-6-ylmethyl ester], the IC50 was at least 100000 nM in test [1] and 501 to 2000 nM in test [2].

With `COc1cccc(CCC(=O)Nc2sc3c(c2C#N)CCC(OC(=O)NCc2cccnc2)C3)c1` (stereo not drawn) [Example 259, Pyridin-3-ylmethyl-carbamic acid 3-cyano-2-[3-(3-methoxy-phenyl)-propanoylamino]-4,5,6,7-tetrahydro-benzo[b]thiophen-6-yl ester], the IC50 in test [1] was at least 100000 nM; in test [2], at most 501 nM.

In the case of `COc1cccc(CCC(=O)Nc2sc3c(c2C#N)CCC(OC(=O)NCc2nccn2C)C3)c1` (stereo not drawn) [Example 261, (1-Methyl-1H-imidazol-2-ylmethyl)-carbamic acid 3-cyano-2-[3-(3-methoxy-phenyl)-propanoylamino]-4,5,6,7-tetrahydro-benzo[b]thiophen-6-yl ester], the figures for the IC50 in test [1] and in test [2] were at least 100000 nM and at most 501 nM, respectively.

For `COc1cccc(CCC(=O)Nc2sc3c(c2C#N)CCC(COC(=O)OCc2nccs2)C3)c1` (stereo not drawn) [Example 262, Carbonic acid 3-cyano-2-[3-(3-methoxy-phenyl)-propanoylamino]-4,5,6,7-tetrahydro-benzo[b]thiophen-6-ylmethyl ester thiazol-2-ylmethyl ester], the IC50 in test [1] was at least 50100 nM; in test [2], 501 to 2000 nM.

For the compound `COc1cccc(CCC(=O)Nc2sc3c(c2C#N)CCC(OC(=O)NCCn2ccnc2)C3)c1` (stereo not drawn) [Example 263, (2-Imidazol-1-yl-ethyl)-carbamic acid 3-cyano-2-[3-(3-methoxy-phenyl)-propanoylamino]-4,5,6,7-tetrahydro-benzo[b]thiophen-6-yl ester], the IC50 was at least 50100 nM in test [1] and at most 501 nM in test [2].

For `COc1cccc(CCC(=O)Nc2sc3c(c2C#N)CCC(OC(=O)Nc2cccnc2)C3)c1` (stereo not drawn) [Example 264, Pyridin-3-yl-carbamic acid 3-cyano-2-[3-(3-methoxy-phenyl)-propanoylamino]-4,5,6,7-tetrahydro-benzo[b]thiophen-6-yl ester], the IC50 is at least 50100 nM in test [1] and 501 to 2000 nM in test [2].

For the compound `COc1cccc(CCC(=O)Nc2sc3c(c2C#N)CCC(OC(=O)NCc2cncn2C)C3)c1` (stereo not drawn) [Example 265, (3-Methyl-3H-imidazol-4-ylmethyl)-carbamic acid 3-cyano-2-[3-(3-methoxy-phenyl)-propanoylamino]-4,5,6,7-tetrahydro-benzo[b]thiophen-6-yl ester], the IC50 in test [1] is at least 50100 nM; in test [2] it was at most 501 nM.

As to `COc1cccc(CCC(=O)Nc2sc3c(c2C#N)CCC(OC(=O)OCc2cncs2)C3)c1` (stereo not drawn) [Example 266, Carbonic acid 3-cyano-2-[3-(3-methoxy-phenyl)-propanoylamino]-4,5,6,7-tetrahydro-benzo[b]thiophen-6-yl ester thiazol-5-ylmethyl ester], the values for the IC50 in test [1] and in test [2] were at least 50100 nM and 501 to 2000 nM, respectively.

For `CC(CC(=O)Nc1sc2c(c1C#N)CCC(OC(=O)NCC1CCOCC1)C2)c1ccccc1` (stereo not drawn) [Example 267, (Tetrahydro-pyran-4-ylmethyl)-carbamic acid 3-cyano-2-(3-phenyl-butanoylamino)-4,5,6,7-tetrahydro-benzo[b]thiophen-6-yl ester], the IC50 is at least 50100 nM in test [1] and at most 501 nM in test [2].

As for `COc1cccc(C(C)CC(=O)Nc2sc3c(c2C#N)CCC(OC(=O)NCc2cccnc2)C3)c1` (stereo not drawn) [Example 268, Pyridin-3-ylmethyl-carbamic acid 3-cyano-2-[3-(3-methoxy-phenyl)-butanoylamino]-4,5,6,7-tetrahydro-benzo[b]thiophen-6-yl ester], the IC50 in test [1] was at least 100000 nM; in test [2] it was 501 to 2000 nM.

With `COc1cccc(C(C)CC(=O)Nc2sc3c(c2C#N)CCC(OC(=O)NCc2ccncc2)C3)c1` (stereo not drawn) [Example 269, Pyridin-4-ylmethyl-carbamic acid 3-cyano-2-[3-(3-methoxy-phenyl)-butanoylamino]-4,5,6,7-tetrahydro-benzo[b]thiophen-6-yl ester], the figures for the IC50 in test [1] and in test [2] were at least 100000 nM and 501 to 2000 nM, respectively.

With `COc1cccc(C(C)CC(=O)Nc2sc3c(c2C#N)CCC(OC(=O)NCC2CCOCC2)C3)c1` (stereo not drawn) [Example 270, (Tetrahydro-pyran-4-ylmethyl)-carbamic acid 3-cyano-2-[3-(3-methoxy-phenyl)-butanoyl-amino]-4,5,6,7-tetrahydro-benzo[b]thiophen-6-yl ester], the results for the IC50 in test [1] and in test [2] were at least 100000 nM and 501 to 2000 nM, respectively.
